Assay type in all cases: physicochemical
Series [1] in a line: Thermal stability by TGA. The conditions noted are these: for Thermal events from SSCI report: mass/weight loss: up to 250° C. How it is done:
TG analyses were performed using a TA Instruments Q5000 IR thermogravimetric analyzer. Temperature calibration was performed using nickel and Alumel™. Each sample was placed in an aluminum pan. The sample was hermetically sealed, the lid pierced, then inserted into the TG furnace. The furnace was heated under nitrogen. The method code on the thermogram is an abbreviation for the start and end temperature as well as the heating rate; e.g., […] means “from 25° C. to 350° C., at 10° C./min”.

Series [2] in a line: Hygroscopicity / dynamic vapour sorption (DVS). The conditions noted are these: for DVS: hygroscopicity: Table 27A. The procedure:
(§1) Approximately, 10-20 mg of sample were placed into a mesh vapour sorption balance pan and loaded into a DVS Intrinsic dynamic vapour sorption balance by Surface Measurement Systems. The sample was subjected to a ramping profile from 40-90% relative humidity (RH) at 10% increments, maintaining the sample at each step until a stable weight had been achieved (dm/dt 0.004%, minimum step length 30 minutes, maximum step length 500 minutes) at 25° C. After completion of the sorption cycle, the sample was dried using the same procedure to 0% RH and then a second sorption cycle back to 40% RH. Two cycles were performed. The weight change during the sorption/desorption cycles were plotted, allowing for the hygroscopic nature of the sample to be determined. XRPD analysis was then carried out on any solid retained.
as §1, with “Approximately, 10” for “Approximately, 10-20”, “sample was” for “sample were”, “a DVS-1” for “a DVS Intrinsic”

Series [3] can be described thus: Storage stability of Compound 3 forms (80° C., 40° C./75% RH, 25° C./60% RH, ambient). The following applies: for 1 week stability: 40° C./75% RH XRPD (uncapped): WC = weakly crystalline. The procedure: No changes by XRPD or HPLC purity were observed when the material was stored at 40° C./75% RH, 80° C. or under ambient conditions.
Series [4] is described as follows: Solubility in selected media (FaSSIF, FeSSIF, FaSSGF, pH 4 citrate, pH 6.8 phosphate). The procedure:
Solubility within selected media (FaSSIF, FeSSIF, FaSSGF, pH 4 citrate and pH 6.8 phosphate) was measured to be <0.01 mg/mL.
The pH 4 citrate buffer was prepared by dissolving sodium citrate (987 mg) and citric acid (1.28 g) in 100 mL H2O. The pH was adjusted to 4. The pH 6.8 phosphate buffer was prepared by dissolving dibasic sodium phosphate dihydrate (873 mg) and monobasic sodium phosphate monohydrate (708 mg) in 100 mL H2O. The pH was adjusted to 6.8. The FaSSIF media was prepared with sodium hydroxide (108 mg), sodium chloride (1.55 g) and monobasic sodium phosphate dihydrate (1.12 g) in H2O (0.25 L) and the pH adjusted to 6.5. FaSSIF/FeSSIF/FaSSGF (0.56 g) was dissolved in the buffer and mixed until opalescent. The FeSSIF media was prepared by dissolving sodium hydroxide (1.01 g), sodium chloride (2.96 g) and glacial acetic acid (2.97 g) in H2O (0.25 L) and the pH adjusted to pH 5. FaSSIF/FeSSIF/FaSSGF (2.81 g) was dissolved in the buffer and thoroughly mixed. The FaSSGF media was prepared by dissolving FaSSIF/FeSSIF/FaSSGF (0.06 g) in a solution of sodium chloride (2.00 g) dissolved in H2O (1 L) and mixing thoroughly.

A short description of series [5]: Thermogravimetric/differential thermal analysis (TG/DTA). How it is done:
Approximately, 5 mg of material was weighed into an open aluminium pan and loaded into a simultaneous thermogravimetric/differential thermal analyzer (TG/DTA) and held at room temperature. The sample was then heated at a rate of 10° C./min from 20° C. to 400° C. during which time the change in sample weight occurred was recorded along with any differential thermal events (DTA). Nitrogen was used as the purge gas at a flow rate of 300 cm^3/min.

Series [6] can be described thus: Differential scanning calorimetry (DSC). The conditions noted are these: for DSC: Melting: onset; for DSC: Melting / DSC: Melting (peak): Table 27A. How it is done: DSC was performed using a TA Instruments 2920 or Q2000 differential scanning calorimeter. Temperature calibration was performed using NIST-traceable indium metal. The sample was placed into an aluminum DSC pan, covered with a lid, and the weight was accurately recorded. A weighed aluminum pan configured as the sample pan was placed on the reference side of the cell. The method code on the thermogram is an abbreviation for the start and end temperature as well as the heating rate; e.g., -30-250-10 means “from −30° C. to 250° C., at 10° C./min”. The following table summarizes the abbreviations used in each image for pan configurations: […]

Read-outs that look alike come from different tables or passages of the source.

As for `CC(=O)c1nn(CC(=O)N2[C@H](C(=O)Nc3nc(Br)ccc3C)C[C@@]3(C)C[C@@H]23)c2ccc(-c3cnc(C)nc3)cc12` [Compound 3 Form A], the “Thermal events from SSCI report: mass/weight loss” value in series [1] is recorded as 0.8% mass loss. For the same molecule, the “DVS analysis: hygroscopic nature” value in series [2] (25° C.) is given as “hygroscopic”. In addition, in series [2], the “DVS: hygroscopicity” value is “Hygroscopic”. In series [2] (at 90% RH, 25° C.), this molecule had a DVS total uptake of 6.9%. Also, the “DVS uptake as equivalents of water” value was 2.5 equiv. water in series [2] (at / up to 90% RH) and 1.0 equiv. water in series [2] (between 50-60% RH). Besides, the DVS sharp uptake in series [2] (between 50-60% RH) came out at 3.0%. For the same molecule, in series [3] (1 week), the “1 week stability: 40° C./75% RH HPLC (uncapped)” value is 99.7% (by % (by relative area). Also, the “1 week stability: 80° C. HPLC (capped)” value in series [3] (1 week) is 99.7% (by % (by relative area). The “1 week stability: 80° C. XRPD (capped)” value in series [3] (1 week) is recorded as “Form A”. The “1 week stability: 40° C./75% RH XRPD (uncapped)” value in series [3] (1 week) is “WC Form A”. Also, the “Stability: form by XRPD after storage” value in series [3] (25° C./60% RH, capped vial) is “Form A”; in series [3] (40° C./75% RH (uncapped)) it was “predominantly Form A”. Further, the “Stability: purity change after storage” value in series [3] (40° C./75% RH (uncapped)) is recorded as “no purity change”. For the same molecule, the “Stability: form by XRPD after storage (repeat study)” value in series [3] (40° C./75% RH, capped and uncapped vials) is listed as “weakly crystalline (WC) Form A”. In addition, the “Stability: purity by HPLC (relative area)” value in series [3] (80° C.) is on record as “no reduction in purity”. Further, the “XRPD Results after stirring in media” value in series [4] (FaSSGF), in series [4] (FaSSIF), in series [4] (FeSSIF), in series [4] (pH 4 citrate buffer) and in series [4] (pH 6.8 phosphate buffer) was “Form A” each time. Also, the solubility was less than 10 µg/mL in series [4] (FaSSGF); less than 10 µg/mL in series [4] (FaSSGF, fassgf or other biorelevant, thermodynamic from solid, read-out: Solubility: HPLC Result); less than 10 µg/mL in series [4] (FaSSIF); less than 10 µg/mL in series [4] (FaSSIF, pH 6.5, fassif, thermodynamic from solid, read-out: Solubility: HPLC Result); less than 10 µg/mL in series [4] (FeSSIF); less than 10 µg/mL in series [4] (FeSSIF, pH 5, fessif, thermodynamic from solid, read-out: Solubility: HPLC Result). Besides, the solubility in series [4] (aqueous buffer, thermodynamic from solid, FaSSIF, FeSSIF, FaSSGF, pH 4 citrate and pH 6.8 phosphate, read-out: Solubility within selected media) was less than 10 µg/mL; in series [4] (aqueous buffer, thermodynamic from solid, pH 6.8 phosphate buffer, read-out: Solubility: HPLC Result), less than 10 µg/mL; in series [4] (pH 4), “Not detected”; in series [4] (pH 6.8 phosphate buffer, pH 6.8, aqueous buffer, thermodynamic from solid, read-out: Solubility), less than 10 µg/mL. Also, the “Solubility: HPLC Result” value in series [4] (pH 4 citrate buffer) is “Not detected”. Moreover, in series [5] (Table 22B), the “Onset Temp: Melting” value is listed as 139.4, melting ° C. Also, in series [5] (Table 22B), the “Onset Temp: decomposition” value is 209.0 °C. Further, the “Onset Temp: melting (second event)” value in series [5] (Table 22B) is listed as 153.9, ° C. The “TG/DTA: Melting” value in series [5] (Table 27A) was “Melting 139.4 °C”. Moreover, the “TG/DTA: decomposition” value in series [5] (Table 27A) was “decomposition 209 °C”. In series [5] (Table 27A), the “TG/DTA: melting (second event)” value is on record as “melting 153.9° C.,”. The “Mass loss within the TG trace” value in series [5] (up to 250° C.) was 0.8%. Further, in series [6] (SSCI report), the “Thermal events from SSCI report: Melt” value was “Melt 133-150 °C”. For the same molecule, in series [6], the “DSC: Melting” value was “Melting 138 °C (peak”. For the same molecule, the “DSC: Melting (peak)” value in series [6] is on record as 151.4° C.).

For `CC(=O)c1nn(CC(=O)N2[C@H](C(=O)Nc3nc(Br)ccc3C)C[C@@]3(C)C[C@@H]23)c2ccc(-c3cnc(C)nc3)cc12` [Compound 3, (1R,3S,5R)-2-(2-(3-acetyl-5-(2-methylpyrimidin-5-yl)-1H-indazol-1-yl)acetyl)-N-(6-bromo-3-methylpyridin-2-yl)-5-methyl-2-azabicyclo[3.1.0]hexane-3-carboxamide], in series [1] (to 250° C.), the “Thermal Stability by TGA” value is ~0.8% wt loss to 250 °C. The Hygroscopicity entry in series [2] is “Non-hygroscopic”. The “Hygroscopicity: moisture uptake” value in series [2] (at 60% RH) was less than 5%.

For `CC(=O)c1nn(CC(=O)N2[C@H](C(=O)Nc3nc(Br)ccc3C)C[C@@]3(C)C[C@@H]23)c2ccc(-c3cnc(C)nc3)cc12` [Form B], the “Thermal events from SSCI report: mass/weight loss” value in series [1] turned out to be 1.3%. For the same molecule, the “DVS analysis: hygroscopic nature” value in series [2] (25° C.) is recorded as “slightly hygroscopic”. Further, the “DVS: hygroscopicity” value in series [2] is “Slightly hygroscopic”. In addition, the “DVS uptake as equivalents of water” value in series [2] (at / up to 90% RH) is 0.1 equiv. water. The same molecule came in with a DVS uptake in series [2] (up to 90% RH) of 0.26 wt %. Besides, in series [3] (1 week), the “1 week stability: 40° C./75% RH HPLC (uncapped)” value is 99.8% (by % (by relative area), the “1 week stability: 80° C. HPLC (capped)” value is 99.9% (by % (by relative area), the “1 week stability: 80° C. XRPD (capped)” value was “Form B” and the “1 week stability: Ambient conditions HPLC (capped)” value is recorded as 99.8% (by % (by relative area). In series [3] (1 week), the “1 week stability: Ambient conditions XRPD (capped)” value is “Form B” and the “1 week stability: 40° C./75% RH XRPD (uncapped)” value is recorded as “Form B”. Also, in series [3] (stored at 40° C./75% RH, 80° C. or under ambient conditions), the “Stability: changes by XRPD or HPLC purity” value was “No changes”. Moreover, the solubility in series [4] (FaSSGF) was less than 10 µg/mL. For the same molecule, in series [4] (FaSSIF), the solubility was less than 10 µg/mL. Also, the solubility in series [4] (FeSSIF) is less than 10 µg/mL. Besides, the “Solubility in selected media” value in series [4] (pH 4, pH 6.8, FaSSIF, FeSSIF and FaSSGF media) is recorded as “poorly soluble”. Further, the “Onset Temp: Melting” value in series [5] (Table 22B) was “Melting 179.8 °C”. Moreover, in series [5] (Table 27A), the “TG/DTA: Melting” value was “Melting 178.4 °C”. Further, the “Thermal events from SSCI report: thermal event temperature” value in series [6] (SSCI report, event not named) was roughly 176 °C. Moreover, in series [6], the “DSC: Melting” value was “Melting 178.4 °C” and the “DSC: Melting (peak)” value is “(peak 186.3° C.)”.

These data come from patent publication US11807627B2, “Morphic forms of complement factor D inhibitors” (priority 2018, dated 2023).
